Data as given in patent publication US9278940B2, “Cyclic amines as bromodomain inhibitors” (Zenith Epigenetics Corp., priority 2012, dated 2016).

Legend:
hIL-6 mRNA = experiment: Inhibition of hIL-6 mRNA transcription in LPS-stimulated U937 macrophages; type: cell-based, human; set-up: key: Active: Compounds with an IC50 value less than 30 μM are deemed to be active.; Not Active: Compounds with an IC50 value less than 30 μM are deemed to be active; settings: U937 cells differentiated with PMA, 1 h pretreatment, LPS 3 h
Description: In this example, hIL-6 mRNA in tissue culture cells was quantitated to measure the transcriptional inhibition of hIL-6 when treated with a compound of the present disclosure.
A human leukemic monocyte lymphoma cell line (U937) was plated (3.2×10^4 cells per well) in a 96-well plate in […] RPMI-1640 containing 10% FBS and penicillin/streptomycin, and differentiated into macrophages for 3 days in 60 ng/mL PMA ([…]) at 37° C. in 5% CO2 prior to the addition of the compound of interest. The cells were pretreated for 1 h with the test compound prior to stimulation with 1 ug/mL lipopolysaccharide from Escherichia coli. The cells were incubated at 37-C for 3 h before the cells were harvested. At time of harvest, the spent media was removed from the cells and the cells were rinsed in 200 μL PBS. Cell lysis solution (70 μL) was added the cells in each well and incubated for 5-10 min at room temperature, to allow for complete cell lysis and detachment. mRNA was then prepared using the “mRNA Catcher PLUS plate” (Invitrogen), according to the protocol supplied. After the last wash, as much wash buffer as possible was aspirated without allowing the wells to dry. Elution buffer (E3, 70 μL) was then added to each well. mRNA was then eluted by incubating the mRNA Catcher PLUS plate with Elution Buffer for 5 min at 68° C. and then immediately placing the plate on ice.
The eluted mRNA isolated was then used in a one-step quantitative real-time PCR reaction, using components of the Ultra Sense Kit together with Applied Biosystems primer-probe mixes. Real-time PCR data was analyzed, normalizing the Ct values for hIL-6 to an internal control, prior to determining the fold induction of each unknown sample, relative to the control.

hApoA-1 mRNA = experiment: Up-regulation of hApoA-1 mRNA transcription in Huh7 cells; type: cell-based, human; set-up: key: Active: Compounds with an EC170 value less than 30 μM are deemed to be active.; Not Active: Compounds with an EC170 value less than 30 μM are deemed to be active; settings: 48 hrs treatment, ApoA-I mRNA
Description: In this example, ApoA-I mRNA in tissue culture cells was quantitated to measure the transcriptional up-regulation of ApoA-I when treated with a compound of the present disclosure.
Huh7 cells ([…] per well) were plated in a 96-well plate using 100 μL DMEM per well, (Gibco DMEM supplemented with penicillin/streptomycin and 10% FBS), 24 h before the addition of the compound of interest. After 48 hrs treatment, the spent media was removed from the Huh-7 cells and placed on ice (for immediate use) or at −80° C. (for future use) with the “LDH cytotoxicity assay Kit II” from Abcam. The cells remaining in the plate were rinsed with 100 μL PBS.
Then 85 μL of cell lysis solution was added to each well and incubated for 5-10 minutes at room temperature, to allow for complete cell lysis and detachment. mRNA was then prepared using the “mRNA Catcher PLUS plate” from Life Technologies, according to the protocol supplied. After the last wash, as much wash buffer as possible was aspirated without allowing the wells to dry. Elution Buffer (E3, 80 μL) was then added to each well. mRNA was then eluted by incubating the mRNA Catcher PLUS plate with Elution Buffer for 5 minutes at 68° C., and then 1 minute at 4° C. Catcher plates with mRNA eluted were kept on ice for use or stored at −80° C.
The eluted mRNA isolated was then used in a one-step real-time PCR reaction, using components of the Ultra Sense Kit together with Life Technologies primer-probe mixes. Real-time PCR data was analyzed, using the Ct values, to determine the fold induction of each unknown sample, relative to the control (that is, relative to the control for each independent DMSO concentration).
Compounds with an EC170 value less than 30 μM are deemed to be active.

Brd4 bromodomain 1 = target: T1, Brd4 bromodomain 1 (Homo sapiens, UniProt O60885); experiment: Inhibition of tetra-acetylated histone H4 binding to BET bromodomain (TR-FRET); set-up: key: Active: Compounds with an IC50 value less than 30 μM were deemed to be active.; Not Active: Compounds with an IC50 value less than 30 μM were deemed to be active; settings: Brd4 bromodomain 1, tetra-acetylated histone H4 peptide
T1 construct: made in house; host or cells: E. coli BL21(DE3)
Description: Proteins were cloned and overexpressed with a N-terminal 6×His tag, then purified by nickel affinity followed by size exclusion chromatography. Briefly, E. coli BL21(DE3) cells were transformed with a recombinant expression vector encoding N-terminally Nickel affinity tagged bromodomains from Brd2, Brd3, Brd4. Cell cultures were incubated at 37° C. with shaking to the appropriate density and induced overnight with IPTG. The supernatant of lysed cells was loaded onto Ni-IDA column for purification. Eluted protein is pooled, concentrated and further purified by size exclusion chromatography. Fractions representing monomeric protein were pooled, concentrated, aliquoted, and frozen at −80° C. for use in subsequent experiments.
Binding of tetra-acetylated histone H4 and BET bromodomains was confirmed by a Time Resolved Fluorescence Resonance Energy Transfer (TR-FRET) method. N-terminally His-tagged bromodomains (200 nM) and biotinylated tetra-acetylated histone H4 peptide (25-50 nM, Millipore) were incubated in the presence of Europium Cryptate-labeled streptavidin (Cisbio Cat. #610SAKLB) and XL665-labeled monoclonal anti-His antibody (Cisbio Cat. #61HISXLB) in a white 96 well microtiter plate (Greiner). For inhibition assays, serially diluted test compound was added to these reactions in a 0.2% final concentration of DMSO. Final buffer concentrations were 30 mM HEPES pH 7.4, 30 mM NaCl, 0.3 mM CHAPS, 20 mM phosphate pH 7.0, 320 mM KF, 0.08% BSA). After 2 hours incubation at room temperature, the fluorescence by FRET was measured at 665 and 620 nm by a SynergyH4 plate reader (Biotek). The binding inhibitory activity was shown by a decrease in 665 nm fluorescence relative to 620 nm. IC50 values were determined from a dose response curve.

Human AML MV-4-11 cells = experiment: Inhibition of cell proliferation in MV4-11 cells; type: cell-based; set-up: key: Active: Compounds with an IC50 value less than 30 μM are deemed to be active.; Not Active: Compounds with an IC50 value less than 30 μM are deemed to be active; settings: 72 hours
Description: MV4-11 cells: 96-well plates were seeded with 5×10^4 cells per well of exponentially growing human AML MV-4-11 (CRL-9591) cells and immediately treated with two-fold dilutions of test compounds, ranging from 30 μM to 0.2 μM. Triplicate wells were used for each concentration, as well as a media only and three DMSO control wells. The cells and compounds were incubated at 37° C., 5% CO2 for 72 hours before adding 20 μL of the CellTiter Aqueous One Solution (Promega) to each well and incubating at 37° C., 5% CO2 for an additional 3-4 hours. The absorbance was taken at 490 nm in a spectrophotometer and the percentage of proliferation relative to DMSO-treated cells was calculated after correction from the blank well. IC50 were calculated using the GraphPad Prism software.

c-myc = experiment: Inhibition of c-myc expression (mRNA, real-time PCR) in MV4-11 cells; type: cell-based; set-up: key: Active: Compounds with an IC50 value less than 30 μM were deemed to be active.; Not Active: Compounds with an IC50 value less than 30 μM were deemed to be active; settings: Human AML MV4-11 cells, 3 hours
Description: MV4-11 cells (2.5×10^4 cells) were plated in 96 well U-bottom plates with test compound or DMSO (0.1%), and incubated for 3 hours at 37° C. Cells were then harvested by centrifugation, lysed, and mRNA was isolated using the mRNA catcher plus kit (Invitrogen). Reverse transcription of the mRNA and duplex amplification of the c-myc and cyclophilin cDNAs was performed using the RNA Ultrasense kit (Invitrogen) and a ViiA7 real-time PCR machine (Applied Biosystems). IC50 values were determined from a dose response curve.

| Compound | IL-6 activity (IC50 < 30 μM) (hIL-6 mRNA) | ApoA-1 activity (EC170 < 30 μM) (hApoA-1 mRNA) | melting point | FRET activity (IC50 < 30 μM) (Brd4 bromodomain 1) | cell proliferation activity (IC50 < 30 μM) (Human AML MV-4-11 cells) | c-myc activity (IC50 < 30 μM) (c-myc) |
| --- | --- | --- | --- | --- | --- | --- |
| COc1cc(OC)c2c(=O)[nH]c(-c3ccc(OC)c(N4CCN(C(C)C)CC4)n3)nc2c1 [Example 14, 2-(6-(4-Isopropylpiperazin-1-yl)-5-methoxypyridin-2-yl)-5,7-dimethoxyquinazolin-4(3H)-one] | Not Active | Active | 208 to 210 °C | Active | Active | Active |
| COc1cc(-c2nc3cc(OC)cc(OC)c3c(=O)[nH]2)cc(N2CCN(C(C)C)CC2)c1 [Example 2, 2-(3-(4-Isopropylpiperazin-1-yl)-5-methoxyphenyl)-5,7-dimethoxyquinazolin-4(3H)-one] | Active | Active | 212 to 213 °C | Active | Active | Active |
| COCCN1CCN(c2cccc(-c3nc4cc(OC)cc(OC)c4c(=O)[nH]3)n2)CC1 [Example 3, 5,7-Dimethoxy-2-(6-(4-(2-methoxyethyl)piperazin-1yl)pyridin-2-yl)quinazolin-4(3H)-one] | Active | Active | 99 to 101 °C | Active | Active | Active |
| COc1cc(OC)c2c(=O)[nH]c(-c3cccc(N4CCN(CCO)CC4)n3)nc2c1 [Example 4, 2-(6-(4-(2-Hydroxyethyl)piperazin-1-yl)pyridin-2-yl)-5,7-dimethoxyquinazolin-4(3H)-one] | Active | Active | 175 to 177 °C | Active | Active | Active |
| COc1cc(OC)c2c(=O)[nH]c(-c3cccc(N4CCN(CCC(=O)O)CC4)n3)nc2c1 [Example 11, 3-(4-(6-(5,7-Dimethoxy-4-oxo-3,4-dihydroquinazolin-2-yl)pyridin-2-yl)piperazin-1-yl)propanoic acid] | Not Active | Not Active | 241 °C (dec.) | Active | – | – |
| COc1cc(OC)c2c(=O)[nH]c(-c3cccc(N4CCN(C(C)C(N)=O)CC4)n3)nc2c1 (stereo not shown) [Example 9, 2-(4-(6-(5,7-Dimethoxy-4-oxo-3,4-dihydroquinazolin-2-yl)pyridin-2-yl)piperazin-1-yl)propanamide] | Not Active | Active | 149 to 150 °C | Active | Active | Not Active |
| COc1cc(OC)c2c(=O)[nH]c(-c3cccc(N4CCN(CC(C)C)CC4)n3)nc2c1 [Example 5, 2-(6-(4-Isobutylpiperazin-1-yl)pyridin-2-yl)-5,7-dimethoxyquinazolin-4(3H)-one] | Active | Active | 188 to 189 °C | Active | Active | Active |
| COc1cc(OC)c2c(=O)[nH]c(-c3cccc(N4CCN(C(C)CO)CC4)n3)nc2c1 (stereo not shown) [Example 8, 2-(6-(4-(1-Hydroxypropan-2-yl)piperazin-1-yl)pyridin-2-yl)-5,7-dimethoxyquinazolin-4(3H)-one] | Active | Active | 202 to 204 °C | Active | Active | Active |
| COc1cc(OC)c2c(=O)[nH]c(-c3cccc(N4CCN(C(C)C)CC4)c3)nc2c1 [Example 1, 2-(3-(4-Isopropylpiperazin-1-yl)phenyl)-5,7-dimethoxyquinazolin-4(3H)-one] | Active | Active | 251 to 253 °C | Active | Not Active | Active |
